Laboratory results: US20060052387A1, “Organic compounds” (priority 2002, published 2006)
Read-outs that look alike come from different tables or passages of the source.

Assays:
[1] = test system: Akt; settings: SALT I 1 or 5 NM (so in the source); M-CSF 100 ng/mL for three minutes
Procedure: Akt1 also called protein kinase B is a serine/threonine kinase involved in a signaling pathway activated by the Bcr-Ab1 activity. Phosphorylated Akt1 phosphorylates cellular proteins and promotes cell proliferation and cell survival.
In vitro Akt kinase assays were performed as described in Kelley et al., supra. Briefly, monocytes were incubated overnight with M-CSF (20 ng/mL), serum-starved for 1.5 hours. […] Akt protein was immunoprecipitated from the cell lysate. The blot was probed with anti-phospho-threonine-Akt, stripped and re-probed for total Akt.

[2] = test system: M-CSF-stimulated human monocytes; settings: for numbers of viable cells after the incubation period / numbers of viable cells after the incubation period, Mean: M-CSF 20 ng/mL + DMSO, 24 hours; for numbers of viable cells after the incubation period, Mean: Mean of 3 experiments
[3] = test system: Caspase-3 activity in M-CSF-stimulated human monocytes; settings: M-CSF 20 ng/mL + DMSO, 18 hours
Source text: Caspase-3 is a cysteine aspartate protease involved in the cascade leading to DNA fragmentation. Caspase-3 cleaves one subunit of a dimer called DNA fragmentation factor (DFF) at a tetrapeptide sequence DEVD, the other subunit then activates a nuclease that degrades DNA. […] Caspase-3 activity is defined as the amount of free amino trifluoromethylcoumarin (AFC) released from the caspase-3 selective fluorosubstrate DEVD-AFC measured by fluorometry. In the following table, caspase activity is given in pmol/min/mg.

CS(=O)(=O)O.Cc1ccc(NC(=O)c2ccc(CN3CCN(C)CC3)cc2)cc1Nc1nccc(-c2cccnc2)n1 [SALT I]
Akt phosphorylation (in words) [1]: Decreases
numbers of viable cells after the incubation period ([2]; Experiment 1, SALT I 1 pM (so in the source)): 130
numbers of viable cells after the incubation period ([2]; Experiment 1, SALT I 5 pM (so in the source)): 156
numbers of viable cells after the incubation period ([2]; Experiment 1, SALT I 10 pM (so in the source)): 138
numbers of viable cells after the incubation period ([2]; Experiment 1, SALT I 50 pM (so in the source)): 46
numbers of viable cells after the incubation period ([2]; Experiment 1, SALT I 100 pM (so in the source)): 15
numbers of viable cells after the incubation period ([2]; Experiment 2, SALT I 1 pM (so in the source)): 79
numbers of viable cells after the incubation period ([2]; Experiment 2, SALT I 5 pM (so in the source)): 47
numbers of viable cells after the incubation period ([2]; Experiment 2, SALT I 10 pM (so in the source)): 46
numbers of viable cells after the incubation period ([2]; Experiment 2, SALT I 50 pM (so in the source)): 7
numbers of viable cells after the incubation period ([2]; Experiment 2, SALT I 100 pM (so in the source)): 11
numbers of viable cells after the incubation period ([2]; Experiment 3, SALT I 1 pM (so in the source)): 143
numbers of viable cells after the incubation period ([2]; Experiment 3, SALT I 5 pM (so in the source)): 75
numbers of viable cells after the incubation period ([2]; Experiment 3, SALT I 10 pM (so in the source)): 58
numbers of viable cells after the incubation period ([2]; Experiment 3, SALT I 50 pM (so in the source)): 36
numbers of viable cells after the incubation period ([2]; Experiment 3, SALT I 100 pM (so in the source)): 16
number of monocytes surviving at 18 hours (in words) ([2]; M-CSF stimulated monocytes, 18 hours): reduces
numbers of viable cells after the incubation period, Mean ([2]; SALT I 1 pM (so in the source)): 117
numbers of viable cells after the incubation period, Mean ([2]; SALT I 5 pM (so in the source)): 93
numbers of viable cells after the incubation period, Mean ([2]; SALT I 10 pM (so in the source)): 81
numbers of viable cells after the incubation period, Mean ([2]; SALT I 50 pM (so in the source)): 30
numbers of viable cells after the incubation period, Mean ([2]; SALT I 100 pM (so in the source)): 14
caspase activity ([3]; Donor 1, SALT I 0.1 pM (so in the source)): 156 pmol/min/mg
caspase activity ([3]; Donor 1, SALT I 1 pM (so in the source)): 356 pmol/min/mg
caspase activity ([3]; Donor 1, SALT I 5 pM (so in the source)): 573 pmol/min/mg
caspase activity ([3]; Donor 1, SALT I 10 pM (so in the source)): 629 pmol/min/mg
caspase activity ([3]; Donor 2, SALT I 0.1 pM (so in the source)): 220 pmol/min/mg
caspase activity ([3]; Donor 2, SALT I 1 pM (so in the source)): 299 pmol/min/mg
caspase activity ([3]; Donor 2, SALT I 5 pM (so in the source)): 329 pmol/min/mg
caspase activity ([3]; Donor 2, SALT I 10 pM (so in the source)): 407 pmol/min/mg
